Test results from the supplement of paper PMC6045584.
± gives the standard deviation of the averaged measurements.

Columns and labels:
[1] = compound: CC[C@@]1(O)C(=O)OCc2c1cc1n(c2=O)Cc2cc3ccccc3nc2-1 [CAMPTOTHECIN]; assay: surviving fraction relative to DMSO-only wells; higher = less growth inhibition; details: exposure time: 5 days
Method in brief: (§1)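 Inhibitors were tested at 0.5, 1, 5, 10, 50, 100, 500 and 1000 nM, applied continuously for five days beginning 24 hours after log-phase tumour cells were seeded at 250–500 per well in 384-well plates. CellTiter-Glo luminescence served as the viability measure, expressed as surviving fraction against the median of DMSO-only wells. Each line, screened three times, was kept only with replicate Pearson r >0.7 and median Z' >0.3.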

[2] = compound: COCC[n+]1c2c(n(Cc3cnccn3)c1C)C(=O)c1ccccc1C2=O [YM155]; assay: as above; details: exposure time: 5 days
Method in brief: as §1

Test System	surviving fraction ([1]; 0.5 nM)	surviving fraction ([1]; 1 nM)	surviving fraction ([1]; 5 nM)	surviving fraction ([1]; 10 nM)	surviving fraction ([1]; 50 nM)	surviving fraction ([1]; 100 nM)	surviving fraction ([1]; 500 nM)	surviving fraction ([1]; 1000 nM)	surviving fraction ([2]; 0.5 nM)	surviving fraction ([2]; 1 nM)	surviving fraction ([2]; 5 nM)	surviving fraction ([2]; 10 nM)	surviving fraction ([2]; 50 nM)	surviving fraction ([2]; 100 nM)	surviving fraction ([2]; 500 nM)	surviving fraction ([2]; 1000 nM)
OS25HAL BONE	0.877 ± 0.013	0.862 ± 0.037	0.475 ± 0.03	0.145 ± 0.022	0.055 ± 0.001	0.0397 ± 0.0093	0.0247 ± 0.0032	0.037 ± 0.0069	0.944 ± 0.046	0.987 ± 0.022	0.295 ± 0.029	0.158 ± 0.03	0.0603 ± 0.0068	0.0357 ± 0.0042	0.0193 ± 0.00058	0.0267 ± 0.0021
OSHN BONE	0.83 ± 0.013	0.842 ± 0.007	0.47 ± 0.079	0.108 ± 0.018	0.0807 ± 0.0076	0.0593 ± 0.012	0.0367 ± 0.0083	0.034 ± 0.0044	1.02 ± 0.021	1.05 ± 0.019	0.265 ± 0.013	0.097 ± 0.008	0.0293 ± 0.0011	0.025 ± 0.001	0.0203 ± 0.00058	0.027 ± 0.0017
PCI30 HEADNECK	0.908 ± 0.043	0.912 ± 0.056	0.857 ± 0.024	0.497 ± 0.026	0.437 ± 0.034	0.487 ± 0.027	0.356 ± 0.015	0.264 ± 0.015	0.933 ± 0.064	0.84 ± 0.075	0.793 ± 0.021	0.491 ± 0.017	0.04 ± 0.0027	0.024 ± 0.0017	0.021 ± 0.0017	0.0233 ± 0.00058
RDES SOFT TISSUE	0.776 ± 0.076	0.735 ± 0.1	0.027 ± 0.001	0.0233 ± 0.00058	0.0347 ± 0.0011	0.0297 ± 0.0015	0.0263 ± 0.0011	0.0357 ± 0.0011	1.44 ± 0.073	1.58 ± 0.18	1.65 ± 0.19	0.622 ± 0.052	0.0673 ± 0.0035	0.0373 ± 0.0015	0.036 ± 0.002	0.0367 ± 0.0021
S68 BREAST	0.576 ± 0.087	0.544 ± 0.073	0.442 ± 0.11	0.342 ± 0.041	0.284 ± 0.045	0.218 ± 0.021	0.0747 ± 0.012	0.0687 ± 0.0057	0.884 ± 0.076	1.1 ± 0.45	0.674 ± 0.092	0.586 ± 0.038	0.143 ± 0.016	0.0627 ± 0.0061	0.0267 ± 0.00058	0.0277 ± 0.0015
SAOS2 BONE	0.794 ± 0.046	0.829 ± 0.024	0.677 ± 0.055	0.415 ± 0.018	0.129 ± 0.006	0.059 ± 0.005	0.0293 ± 0.0032	0.0267 ± 0.00058	1.16 ± 0.021	1.1 ± 0.097	0.39 ± 0.035	0.237 ± 0.0095	0.053 ± 0.0069	0.0327 ± 0.006	0.0223 ± 0.00058	0.0293 ± 0.00058
SCC003 HEADNECK	0.817 ± 0.034	0.868 ± 0.085	0.849 ± 0.065	0.786 ± 0.094	0.361 ± 0.052	0.218 ± 0.029	0.07 ± 0.0061	0.054 ± 0.004	1.072 ± 0.0061	1.02 ± 0.071	0.82 ± 0.12	0.502 ± 0.14	0.086 ± 0.0066	0.052 ± 0.0046	0.024	0.025 ± 0.0017
SCC36 HEADNECK	0.804 ± 0.15	0.703 ± 0.13	0.704 ± 0.14	0.495 ± 0.018	0.332 ± 0.012	0.156 ± 0.0031	0.0463 ± 0.012	0.0413 ± 0.004	1.01 ± 0.035	1.02 ± 0.042	1.06 ± 0.14	0.817 ± 0.07	0.261 ± 0.056	0.105 ± 0.0036	0.04 ± 0.0056	0.0387 ± 0.0015
